{"source": "patent US5563130A", "about": "“Methods for inhibiting angiogenesis, proliferation of endothelial or tumor cells and tumor growth” (American Cyanamid Company, priority 1994, dated 1996)", "key": {"[1]": {"system": "Adult Bovine Aortic Endothelial (ABAE) cell line", "assay": "Antiproliferative activity in ABAE cells, PROTOCOL 2 (48 h, SRB, single well)", "format": "cell-based", "settings": "Bos taurus; ABAE cells, 48 h, PROTOCOL 2", "protocol": "(§1) PROTOCOL 1, 2, and 3 are described in greater detail hereinbelow. In general, according to PROTOCOLS 1 and 2, the target ABAE and/or Human Tumor cells are exposed to the compound of Formula I for 48 hours. PROTOCOL 3 exposes ABAE cell to the compound for 4 days. A detailed description of the protocol is as follows:\n(§2) Antiproliferative Activity in Human Tumor and Adult Bovine Aortic Endothelial (ABAE) Cell Lines\n(§3) The antiproliferative activity of the compounds of Formula I is evaluated in a panel comprised of human tumor cell lines and an adult bovine aortic endothelial cell line (ABAE) as listed in PROTOCOL 1. This assay is a modification of PROTOCOL 1. The modifications include:\n(§4) 1) each concentration for each compound is tested in a single well;\n(§5) 2) compounds are tested at 20, 4, 0.8, 0.16 microgram/ml and additionally in some experiments at 100 and 0.32 microgram/ml;\n(§6) 3) samples are pipetted into a 96-well plate for each of the cell lines by a Beckman Biomek 1000 SL robot;\n(§7) 4) after fixing with TCA each well is washed with 0.35 ml distilled water twice, not five times;\n5) after staining with sulforhodamine B each well is washed 3 times, not five times;\n6) the growth inhibition (I) as % of control, is calculated using the RS-1 data package (BBN Software), for every concentration of drug, as follows: [formula] wherein: T is optical density measurement for treated cells after 48 hours;\n(§8) C is optical density measurement for untreated cells after 48 hours;\n7) IC50 of growth inhibition is determined from graphically from dose response curves, as is known in the art.\nTable 1 presents the results depicting the antiproliferative activity of the compounds of Formula I against an Adult Bovine Aortic Endothelial (ABAE) cell line, as evaluated by PROTOCOL 1 and PROTOCOL 2. The results are presented in terms of IC50 and are as follows."}, "[2]": {"system": "tumor", "settings": "in conjunction with cancer chemotherapy or radiation therapy; Teicher et al; cited from earlier work"}, "[3]": {"system": "A2780S", "assay": "Antiproliferative activity in human ovarian tumor cell line A2780S", "format": "cell-based", "settings": "Homo sapiens, A2780S, PROTOCOL 1 and PROTOCOL 2", "protocol": "as §1, §2\n(§9) The antiproliferative activity of the compounds of Formula I of the present invention is evaluated in a panel comprised of human tumor cell lines and an adult bovine aortic endothelial cell line (ABAE). The human tumor cell lines are from:\n(§10) All cell lines are maintained in log phase in RPMI 1640 media, supplemented with 5% fetal calf serum, penicillin/streptomycin and 2 mM L-glutamine. Cultures are renewed after 20 passages with cells from a fresh stock of batch-frozen early passage cells. Cell lines are routinely checked for mycoplasma contamination (Genprobe). In a laminar flow hood, cells (1-5×10^4) are plated into 96-well microtiter plates in a volume of 0.1 ml/well with a bulk microtiter dispenser (Denley). […] At this concentration, dimethylsulfoxide has no effect on cell growth. Compounds are added using a Tomtec dispenser which simultaneously dispenses from one 96-well plate, containing the drug dilutions, to the plates containing the cells. After two days of continuous drug exposure, 50% cold trichloroacetic acid (TCA) is added to 10% final concentration to fix the cells, and after 60 minutes at 4° C., the TCA is aspirated and the plates are washed 5 times with deionized water using a microtiter plate washer. The number of cells on the plate are quantitated using a protein dye-binding assay (Monks et al., 1991). A 0.4% solution of the dye, sulforhodamine B, in glacial acetic acid is added to the plates, and the plates are washed 5 times with 1% glacial acetic acid using the automatic plate washed. The bound stain is solubilized with 0.1 ml of 10 mM Tris base. The optical densities are read from an automatic spectrophotometric plate reader (Dynatech) directly to a main frame computer (VAX 8600).\n(§11) Positive controls, that include standard chemotherapeutic drugs (i.e., adriamycin, cisplatin, etc.), are included in every experiment.\n(§12) Background optical density measurements (complete media-cells, and complete media+drug-cells) are automatically subtracted from the appropriate control and test wells. Mean values and standard errors are determined from duplicate wells. A measure is also made of the optical density at time when the drugs are added. The number of cells after treatment (P), as % of control, is calculated for every concentration of drug, as follows: [formula] wherein: T is optical density measurement for treated cells after 48 hours;\nas §8\n(§13) Co is optical density measurement for cells at the time of drug addition.\n(§14) IC50 of growth inhibition is calculated from the sets of P values using the RS-1 data package (BBN Software).\nas §3, §4, §5, §6, §7\n(§15) 5) after staining with sulforhodamine B each well is washed 3 times, not five times; […]"}, "[4]": {"system": "MIP", "assay": "Antiproliferative activity in human colon tumor cell line MIP", "format": "cell-based", "settings": "Homo sapiens, PROTOCOL 1 and PROTOCOL 2", "protocol": "as §1, §2, §9\n(§16) 2) Colon tumors: MIP, CaCo2, and SW620.\nas §10, §11, §12, §8, §13, §14, §3, §4, §5, §6, §7, §15"}, "[5]": {"system": "Adult Bovine Aortic Endothelial (ABAE) cell line", "assay": "Antiproliferative activity in ABAE cells, PROTOCOL 3 (4 days, cell count)", "format": "cell-based", "settings": "Bos taurus, 96 h, PROTOCOL 3, FIG. 1, read-out: inhibits 50% of cell growth", "protocol": "as §1\nAntiproliferative Activity in Adult Bovine Aortic Endothelial (ABAE) Cell Line\nABAE cells are grown in DMEM media (Mediatech, Washington, D.C.) supplemented with 10% calf serum (Hyclone). ABAE cells are plated in 24-well dishes at 8,000 cells/well, followed by the addition of increasing concentrations of 7-[substituted amino]-9-[(substituted glycyl)amido]-6-demethyl-6-deoxytetracyclines. After four days, the cells are detached and counted. […] The growth inhibition (I) as % of control is calculated as follows: [formula] wherein: Nc is the number of cells in untreated wells;\nNt is the number of cells in treated wells;\nNo is the number of plated cells.\nIC50 of growth inhibition is determined from the sets of I values plotted by Kaleidograph software (Abelbeck Software).\nIn addition FIG. 1, presents the dose response curve of the compound of Example 6 for the above ABAE cell line obtained by PROTOCOL 3."}, "[6]": {"system": "Human Tumor Cell lines", "assay": "Antiproliferative activity in panel of human tumor cell lines", "format": "cell-based", "settings": "average over the tested human tumor cell lines", "protocol": "as §1, §2, §9, §16, §10, §11, §12, §8, §13, §14, §3, §4, §5, §6, §7, §15"}, "[7]": {"system": "angiogenesis", "settings": "Cancer Research 51, 672-675, Brem et al; vs combination of heparin and cortisone; cited from earlier work"}}, "data": [{"compound": "CN(C)c1ccc(O)c2c1C[C@H]1C[C@H]3[C@H](N(C)C)C(O)=C(C(N)=O)C(=O)[C@@]3(O)C(O)=C1C2=O", "note": "[Minocycline, reference compound]", "values": [{"measurement": "IC50", "setting": "[1]", "value": "≥ 20", "unit": "mg/L"}, {"measurement": "number of metastases", "setting": "[2]", "value": "reduced"}, {"measurement": "tumor growth", "setting": "[2]", "value": "decreased"}, {"measurement": "IC50", "setting": "[3]", "value": 6.1, "unit": "mg/L"}, {"measurement": "IC50", "setting": "[4]", "value": 6.1, "unit": "mg/L"}, {"measurement": "IC50", "setting": "[5]", "value": "~50", "unit": "mg/L"}, {"measurement": "IC50", "setting": "[6]", "value": 6.6, "unit": "mg/L"}, {"measurement": "extent of angiogenesis inhibition", "setting": "[7]", "value": "comparable to that of the combination therapy of heparin and cortisone"}]}]}
